Measurements reported in ChEMBL document CHEMBL1201862, “PubChem BioAssay data set” (2004).
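Grown in 96-well plates, cells were treated for 48 hours with each compound at five concentrations. Insufficient inhibition: endpoint recorded as highest concentration tested. The concentration for 50% growth inhibition is given as GI50.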 Calls of active or inactive are those of the source. No stated cut-off is given here; in the data, active = GI50 up to about 1.1 µM and inactive = higher.

What was measured:
Experiment in all cases: inhibition of tumour cell growth, NCI panel, 48 h
T47D = system: T47D
CCRF-CEM = system: CCRF-CEM
EKVX = system: EKVX
Hs-578T = system: Hs-578T
HOP-62 = system: HOP-62
CAKI-1 = system: CAKI-1
K562 = system: K562
MDA-MB-435 = system: MDA-MB-435
A498 = system: A498
MCF7 = system: MCF7
SF-295 = system: SF-295
SF-539 = system: SF-539
SNB-75 = system: SNB-75
NCI-H226 = system: NCI-H226
MDA-MB-231 = system: MDA-MB-231
OVCAR-5 = system: OVCAR-5
SF-268 = system: SF-268
A549 = system: A549
Malme-3M = system: Malme-3M
M14 = system: M14
NCI-H460 = system: NCI-H460
NCI-H522 = system: NCI-H522
TK-10 = system: TK-10
HL-60 = system: HL-60
MOLT-4 = system: MOLT-4
ACHN = system: ACHN
786-0 = system: 786-0
LOX IMVI = system: LOX IMVI
HCT-116 = system: HCT-116
NCI/ADR-RES = system: NCI/ADR-RES
HCC 2998 = system: HCC 2998
SK-MEL-2 = system: SK-MEL-2
UO-31 = system: UO-31
KM12 = system: KM12
BT-549 = system: BT-549
UACC-62 = system: UACC-62
UACC-257 = system: UACC-257
PC-3 = system: PC-3
DU-145 = system: DU-145
COLO 205 = system: COLO 205
OVCAR-3 = system: OVCAR-3
SN12C = system: SN12C
HT-29 = system: HT-29
SW-620 = system: SW-620
OVCAR-4 = system: OVCAR-4
RPMI-8226 = system: RPMI-8226
NCI-H23 = system: NCI-H23
HOP-92 = system: HOP-92
IGROV-1 = system: IGROV-1
OVCAR-8 = system: OVCAR-8
HCT-15 = system: HCT-15
SNB-19 = system: SNB-19
U-251 = system: U-251
SK-MEL-5 = system: SK-MEL-5
RXF 393 = system: RXF 393
SK-OV-3 = system: SK-OV-3
SK-MEL-28 = system: SK-MEL-28
MDA-N = system: MDA-N
SR = system: SR

## Cn1c(N2CCCC2)c(C=O)c(=O)n(C)c1=O
T47D
  GI50: > 100 µM (inactive)
CCRF-CEM
  GI50: > 100 µM (inactive)
EKVX
  GI50: > 100 µM (inactive)
Hs-578T
  GI50: 91.6 µM (inactive)
HOP-62
  GI50: > 100 µM (inactive)
CAKI-1
  GI50: > 100 µM (inactive)
K562
  GI50: > 100 µM (inactive)
MDA-MB-435
  GI50: > 100 µM (inactive)
A498
  GI50: > 100 µM (inactive)
MCF7
  GI50: > 100 µM (inactive)
SF-295
  GI50: > 100 µM (inactive)
SF-539
  GI50: > 100 µM (inactive)
SNB-75
  GI50: 14.1 µM (inactive)
NCI-H226
  GI50: 51.8 µM (inactive)
MDA-MB-231
  GI50: > 100 µM (inactive)
OVCAR-5
  GI50: > 100 µM (inactive)
SF-268
  GI50: 96.8 µM (inactive)
A549
  GI50: > 100 µM (inactive)
Malme-3M
  GI50: 78.5 µM (inactive)
M14
  GI50: > 100 µM (inactive)
NCI-H460
  GI50: > 100 µM (inactive)
NCI-H522
  GI50: > 100 µM (inactive)
TK-10
  GI50: > 100 µM (inactive)
HL-60
  GI50: > 100 µM (inactive)
MOLT-4
  GI50: > 100 µM (inactive)
ACHN
  GI50: > 100 µM (inactive)
786-0
  GI50: > 100 µM (inactive)
LOX IMVI
  GI50: > 100 µM (inactive)
HCT-116
  GI50: > 100 µM (inactive)
NCI/ADR-RES
  GI50: > 100 µM (inactive)
HCC 2998
  GI50: > 100 µM (inactive)
SK-MEL-2
  GI50: > 100 µM (inactive)
UO-31
  GI50: > 100 µM (inactive)
KM12
  GI50: > 100 µM (inactive)
BT-549
  GI50: > 100 µM (inactive)
UACC-62
  GI50: > 100 µM (inactive)
UACC-257
  GI50: > 100 µM (inactive)
PC-3
  GI50: > 100 µM (inactive)
DU-145
  GI50: > 100 µM (inactive)
COLO 205
  GI50: > 100 µM (inactive)
OVCAR-3
  GI50: > 100 µM (inactive)
SN12C
  GI50: > 100 µM (inactive)
HT-29
  GI50: > 100 µM (inactive)
SW-620
  GI50: > 100 µM (inactive)
OVCAR-4
  GI50: > 100 µM (inactive)
RPMI-8226
  GI50: > 100 µM (inactive)
NCI-H23
  GI50: > 100 µM (inactive)
HOP-92
  GI50: > 100 µM (inactive)
IGROV-1
  GI50: > 100 µM (inactive)
OVCAR-8
  GI50: > 100 µM (inactive)
HCT-15
  GI50: > 100 µM
SNB-19
  GI50: > 100 µM (inactive)
U-251
  GI50: > 100 µM (inactive)
SK-MEL-5
  GI50: > 100 µM (inactive)
RXF 393
  GI50: > 100 µM (inactive)
SK-OV-3
  GI50: > 100 µM (inactive)
SK-MEL-28
  GI50: > 100 µM (inactive)
MDA-N
  GI50: > 100 µM (inactive)

## CC(C)C(C)C(O)C(O)C(C)C1CCC2C3COC(=O)C4CC(O)C(O)CC4(C)C3CCC12C (stereo not drawn)
T47D
  GI50: 40.9 µM (inactive)
CCRF-CEM
  GI50: 22.8 µM (inactive)
EKVX
  GI50: 43.7 µM (inactive)
Hs-578T
  GI50: 78.7 µM (inactive)
CAKI-1
  GI50: 11.7 µM (inactive)
K562
  GI50: 39 µM (inactive)
MDA-MB-435
  GI50: > 100 µM (inactive)
A498
  GI50: > 100 µM (inactive)
MCF7
  GI50: 56.4 µM (inactive)
SF-295
  GI50: 78.5 µM (inactive)
SF-539
  GI50: > 100 µM (inactive)
NCI-H226
  GI50: 23.2 µM (inactive)
MDA-MB-231
  GI50: > 100 µM (inactive)
OVCAR-5
  GI50: > 100 µM (inactive)
SF-268
  GI50: 79.3 µM (inactive)
A549
  GI50: 48.9 µM (inactive)
Malme-3M
  GI50: > 100 µM (inactive)
M14
  GI50: > 100 µM (inactive)
NCI-H460
  GI50: 57.9 µM (inactive)
NCI-H522
  GI50: 55.2 µM (inactive)
TK-10
  GI50: > 100 µM (inactive)
HL-60
  GI50: > 10 µM (inactive)
MOLT-4
  GI50: 27.1 µM (inactive)
ACHN
  GI50: 25.4 µM (inactive)
786-0
  GI50: > 100 µM (inactive)
LOX IMVI
  GI50: > 100 µM (inactive)
HCT-116
  GI50: > 100 µM (inactive)
NCI/ADR-RES
  GI50: > 100 µM (inactive)
HCC 2998
  GI50: > 100 µM (inactive)
SK-MEL-2
  GI50: > 100 µM (inactive)
UO-31
  GI50: 58.1 µM (inactive)
KM12
  GI50: 50.2 µM (inactive)
BT-549
  GI50: 88.3 µM (inactive)
UACC-62
  GI50: > 100 µM (inactive)
UACC-257
  GI50: > 100 µM (inactive)
PC-3
  GI50: 46.9 µM (inactive)
DU-145
  GI50: > 100 µM (inactive)
COLO 205
  GI50: 94 µM (inactive)
SN12C
  GI50: 33.7 µM (inactive)
HT-29
  GI50: 35.9 µM (inactive)
SW-620
  GI50: > 100 µM (inactive)
OVCAR-4
  GI50: 59 µM (inactive)
NCI-H23
  GI50: 92.7 µM (inactive)
HOP-92
  GI50: 32.8 µM (inactive)
IGROV-1
  GI50: > 100 µM (inactive)
OVCAR-8
  GI50: 62.8 µM (inactive)
HCT-15
  GI50: 66.1 µM
SNB-19
  GI50: 28.1 µM (inactive)
U-251
  GI50: 62.5 µM (inactive)
SK-MEL-5
  GI50: 35 µM (inactive)
RXF 393
  GI50: 20.2 µM (inactive)
SK-OV-3
  GI50: > 100 µM (inactive)
SK-MEL-28
  GI50: > 100 µM (inactive)
MDA-N
  GI50: 56 µM (inactive)

## O=S(=O)(O)c1ccc(/N=N/c2ccc(/N=N/c3c(O)ccc4ccc(S(=O)(=O)O)cc34)cc2)cc1
T47D
  GI50: > 100 µM (inactive)
CCRF-CEM
  GI50: > 100 µM (inactive)
EKVX
  GI50: > 100 µM (inactive)
Hs-578T
  GI50: > 100 µM (inactive)
HOP-62
  GI50: > 100 µM (inactive)
CAKI-1
  GI50: > 100 µM (inactive)
K562
  GI50: > 100 µM (inactive)
MDA-MB-435
  GI50: > 100 µM (inactive)
SR
  GI50: > 100 µM (inactive)
MCF7
  GI50: > 100 µM (inactive)
SF-295
  GI50: > 100 µM (inactive)
SF-539
  GI50: > 100 µM (inactive)
NCI-H226
  GI50: > 100 µM (inactive)
MDA-MB-231
  GI50: > 100 µM (inactive)
OVCAR-5
  GI50: > 100 µM (inactive)
SF-268
  GI50: > 100 µM (inactive)
A549
  GI50: > 100 µM (inactive)
Malme-3M
  GI50: > 100 µM (inactive)
M14
  GI50: > 100 µM (inactive)
NCI-H460
  GI50: > 100 µM (inactive)
NCI-H522
  GI50: > 100 µM (inactive)
TK-10
  GI50: > 100 µM (inactive)
HL-60
  GI50: > 100 µM (inactive)
MOLT-4
  GI50: > 100 µM (inactive)
ACHN
  GI50: > 100 µM (inactive)
786-0
  GI50: > 100 µM (inactive)
HCT-116
  GI50: > 100 µM (inactive)
NCI/ADR-RES
  GI50: > 100 µM (inactive)
HCC 2998
  GI50: > 100 µM (inactive)
SK-MEL-2
  GI50: > 100 µM (inactive)
UO-31
  GI50: > 100 µM (inactive)
KM12
  GI50: > 100 µM (inactive)
BT-549
  GI50: > 100 µM (inactive)
UACC-62
  GI50: > 100 µM (inactive)
UACC-257
  GI50: > 100 µM (inactive)
PC-3
  GI50: > 100 µM (inactive)
DU-145
  GI50: > 100 µM (inactive)
COLO 205
  GI50: > 100 µM (inactive)
OVCAR-3
  GI50: > 100 µM (inactive)
SN12C
  GI50: > 100 µM (inactive)
HT-29
  GI50: > 100 µM (inactive)
SW-620
  GI50: > 100 µM (inactive)
OVCAR-4
  GI50: > 100 µM (inactive)
RPMI-8226
  GI50: > 100 µM (inactive)
NCI-H23
  GI50: > 100 µM (inactive)
HOP-92
  GI50: > 100 µM (inactive)
IGROV-1
  GI50: > 100 µM (inactive)
OVCAR-8
  GI50: > 100 µM (inactive)
HCT-15
  GI50: > 100 µM
SNB-19
  GI50: > 100 µM (inactive)
U-251
  GI50: > 100 µM (inactive)
SK-MEL-5
  GI50: > 100 µM (inactive)
RXF 393
  GI50: > 100 µM (inactive)
SK-OV-3
  GI50: > 100 µM (inactive)
SK-MEL-28
  GI50: > 100 µM (inactive)
MDA-N
  GI50: > 100 µM (inactive)
